From ChEMBL document CHEMBL1144232, “Tricyclic azepine derivatives as selective brain penetrant 5-HT6 receptor antagonists” (Bioorg Med Chem Lett, 2008)

What was measured:
[1] = biological target: T1, 5-hydroxytryptamine receptor 6 (Homo sapiens, UniProt P50406); experiment: Antagonist activity at 5HT6 receptor expressed in HeLa cells assessed as 5HT-induced cAMP accumulation by chemiluminescence assay; type: functional, cell-based
Liver microsomes = experiment: Metabolic stability in rat liver microsomes assessed as intrinsic clearance at […] upto 30 mins; type: ADME, Microsome; conditions: 0.5 h
Cytochrome P450 3A4 [2] = biological target: T2, Cytochrome P450 3A4 (Homo sapiens, UniProt P08684); experiment: Inhibition of human CYP3A4 by microtiter plate assays using N-N,diethyl-formamide as substrate
Cytochrome P450 3A4 [3] = biological target: T2, Cytochrome P450 3A4; experiment: Inhibition of human CYP3A4 by microtiter plate assays using PPR substrate
[4] = Ratio of drug level in brain to blood in orally dosed rat after 4 hrs; conditions: brain and blood, po
[5] = biological target: T1, 5-hydroxytryptamine receptor 6; experiment: Antagonist activity at 5HT6 receptor; type: functional
[6] = biological target: 5-hydroxytryptamine receptor 2A (Homo sapiens, UniProt P28223); experiment: Antagonist activity at 5HT2A receptor; type: functional
[7] = biological target: 5-hydroxytryptamine receptor 2B (Homo sapiens, UniProt P41595); experiment: Antagonist activity at 5HT2B receptor; type: functional
[8] = biological target: 5-hydroxytryptamine receptor 6 (Rattus norvegicus) (UniProt P31388); experiment: Ex vivo displacement of [125I]258585 from 5HT6 receptor in po dosed rat striatum; type: organism-based
[9] = biological target: T3, 5-hydroxytryptamine receptor 2C (Homo sapiens, UniProt P28335); experiment: Antagonist activity at 5HT2C receptor; type: functional
T3 sequence (P28335 whole entry): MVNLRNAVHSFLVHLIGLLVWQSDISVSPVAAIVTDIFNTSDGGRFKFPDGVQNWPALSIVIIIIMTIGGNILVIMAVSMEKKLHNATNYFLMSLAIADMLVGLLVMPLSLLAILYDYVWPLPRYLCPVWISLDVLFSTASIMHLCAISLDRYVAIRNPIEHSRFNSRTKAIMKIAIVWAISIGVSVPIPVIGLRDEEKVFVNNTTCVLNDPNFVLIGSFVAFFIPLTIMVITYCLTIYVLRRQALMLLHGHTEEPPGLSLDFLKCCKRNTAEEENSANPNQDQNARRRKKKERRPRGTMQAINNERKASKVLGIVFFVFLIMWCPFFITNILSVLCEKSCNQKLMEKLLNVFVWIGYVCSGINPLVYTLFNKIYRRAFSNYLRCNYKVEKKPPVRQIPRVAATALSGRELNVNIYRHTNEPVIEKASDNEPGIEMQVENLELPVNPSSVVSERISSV

Blood = experiment: Drug level in rat blood at 1 mg/kg, po; type: ADME, organism-based; set-up: dose 1 mg/kg, route oral; conditions: in vivo, read-out: Drug uptake

T2 sequence (P08684 whole entry): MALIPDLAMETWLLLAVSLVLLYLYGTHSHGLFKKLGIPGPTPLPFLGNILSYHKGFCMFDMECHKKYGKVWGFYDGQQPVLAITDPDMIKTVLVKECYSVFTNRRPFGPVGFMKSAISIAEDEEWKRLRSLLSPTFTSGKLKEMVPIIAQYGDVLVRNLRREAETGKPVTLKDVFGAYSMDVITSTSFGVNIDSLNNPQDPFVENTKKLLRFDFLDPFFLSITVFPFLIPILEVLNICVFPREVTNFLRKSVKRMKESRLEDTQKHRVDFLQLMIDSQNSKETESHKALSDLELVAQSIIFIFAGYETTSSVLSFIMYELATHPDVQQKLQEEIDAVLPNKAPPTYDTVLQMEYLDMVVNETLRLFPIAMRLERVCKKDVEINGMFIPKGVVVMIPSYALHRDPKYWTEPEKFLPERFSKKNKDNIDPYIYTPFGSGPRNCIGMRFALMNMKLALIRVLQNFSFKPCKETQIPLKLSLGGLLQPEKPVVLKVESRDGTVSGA
T1 sequence (P50406 whole entry): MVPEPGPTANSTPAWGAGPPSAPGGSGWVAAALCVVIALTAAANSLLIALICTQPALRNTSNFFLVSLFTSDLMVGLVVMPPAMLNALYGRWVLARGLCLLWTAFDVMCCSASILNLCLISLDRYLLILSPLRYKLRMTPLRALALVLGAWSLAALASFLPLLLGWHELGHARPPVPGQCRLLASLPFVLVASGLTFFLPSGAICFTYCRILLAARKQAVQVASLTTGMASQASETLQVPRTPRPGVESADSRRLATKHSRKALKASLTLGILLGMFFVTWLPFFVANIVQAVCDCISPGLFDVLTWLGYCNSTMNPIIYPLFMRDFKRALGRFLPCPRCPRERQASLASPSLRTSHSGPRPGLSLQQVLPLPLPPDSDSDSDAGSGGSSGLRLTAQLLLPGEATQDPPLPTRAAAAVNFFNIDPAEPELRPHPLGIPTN
Sequence of 5-hydroxytryptamine receptor 6 (Rattus norvegicus) (P31388 whole entry): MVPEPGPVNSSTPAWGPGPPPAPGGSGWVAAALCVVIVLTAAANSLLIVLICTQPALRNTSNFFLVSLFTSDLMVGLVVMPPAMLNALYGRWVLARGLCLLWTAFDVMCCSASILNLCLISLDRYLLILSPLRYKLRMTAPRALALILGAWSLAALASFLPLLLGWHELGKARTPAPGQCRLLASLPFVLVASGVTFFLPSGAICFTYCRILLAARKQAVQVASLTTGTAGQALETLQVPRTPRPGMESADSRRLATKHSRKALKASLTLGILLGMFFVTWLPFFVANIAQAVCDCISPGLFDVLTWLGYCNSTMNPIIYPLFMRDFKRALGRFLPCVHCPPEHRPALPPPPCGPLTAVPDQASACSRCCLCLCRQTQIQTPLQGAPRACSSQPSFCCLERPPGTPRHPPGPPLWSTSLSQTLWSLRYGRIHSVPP
Sequence of 5-hydroxytryptamine receptor 2B (P41595 whole entry): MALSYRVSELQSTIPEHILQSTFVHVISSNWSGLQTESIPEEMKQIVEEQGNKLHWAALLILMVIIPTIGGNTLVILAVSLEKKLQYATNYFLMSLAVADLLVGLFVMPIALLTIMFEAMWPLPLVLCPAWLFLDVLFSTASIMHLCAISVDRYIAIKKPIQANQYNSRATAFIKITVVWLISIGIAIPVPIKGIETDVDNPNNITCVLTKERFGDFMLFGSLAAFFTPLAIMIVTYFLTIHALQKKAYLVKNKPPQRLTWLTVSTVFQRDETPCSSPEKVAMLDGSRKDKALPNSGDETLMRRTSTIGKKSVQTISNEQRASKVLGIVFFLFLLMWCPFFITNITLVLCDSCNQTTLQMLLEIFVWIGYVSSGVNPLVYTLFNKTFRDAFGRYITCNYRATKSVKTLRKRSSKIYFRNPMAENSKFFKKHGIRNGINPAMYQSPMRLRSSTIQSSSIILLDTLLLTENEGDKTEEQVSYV
Sequence of 5-hydroxytryptamine receptor 2A (P28223 whole entry): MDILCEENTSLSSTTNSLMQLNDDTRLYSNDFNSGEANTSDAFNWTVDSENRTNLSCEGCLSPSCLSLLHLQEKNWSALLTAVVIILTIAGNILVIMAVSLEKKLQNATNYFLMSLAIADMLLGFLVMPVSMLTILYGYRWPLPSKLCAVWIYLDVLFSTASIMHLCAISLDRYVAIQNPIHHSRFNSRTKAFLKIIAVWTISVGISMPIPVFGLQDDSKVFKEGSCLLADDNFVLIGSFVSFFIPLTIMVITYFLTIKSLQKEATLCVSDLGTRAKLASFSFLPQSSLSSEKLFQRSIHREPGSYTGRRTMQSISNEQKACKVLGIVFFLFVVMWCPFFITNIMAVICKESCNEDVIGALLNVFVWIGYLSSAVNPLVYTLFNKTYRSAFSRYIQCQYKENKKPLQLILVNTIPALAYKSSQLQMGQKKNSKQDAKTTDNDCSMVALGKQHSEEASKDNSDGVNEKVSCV

SMILES	Ki [1] [µM]	CL (Liver microsomes) [mL/min/g]	IC50 (Cytochrome P450 3A4 [2]) [µM]	IC50 (Cytochrome P450 3A4 [3]) [µM]	other results
O=S(=O)(c1cccc(Cl)c1)n1cc(Cl)c2cc3c(cc21)CCNCC3	0.00398	< 0.5			
Cn1cc(S(=O)(=O)c2ccccc2)c2cc3c(cc21)CCNCC3	0.002	4.6	7.8	13	
O=S(=O)(c1ccsc1)n1ccc2cc3c(cc21)CCNCC3	0.00794	21	9.7	22	
O=S(=O)(Nc1ccc2c(c1)CCNCC2)c1ccccc1					Kp at 4 h [4]: 0.5; Ki [5]: 0.002 µM
O=S(=O)(c1ccccc1)N1CCCc2cc3c(cc21)CCNCC3	0.0398				
O=S(=O)(c1ccccc1)n1cc(Cl)c2cc3c(cc21)CCNCC3	0.00251	1.7	12	19	Ki [6]: 0.0251 µM; Ki [7]: 0.398 µM; ED50 [8]: 4 mg/kg; Ki [9]: 0.158 µM
O=S(=O)(c1ccccc1)n1ccc2cc3c(cc21)CCNCC3	0.00158	7.1	12	20	
COc1cccc(S(=O)(=O)n2ccc3cc4c(cc32)CCNCC4)c1	0.002	2.7	17	27	
O=S(=O)(c1ccccc1Cl)n1ccc2cc3c(cc21)CCNCC3	0.00794	4.5	2.5	3.2	
O=S(=O)(c1ccc(Cl)cc1)n1ccc2cc3c(cc21)CCNCC3	0.00794				
O=S(=O)(c1ccccn1)n1ccc2cc3c(cc21)CCNCC3	0.1	3.6	39	77	
CN1CCc2cc3ccn(S(=O)(=O)c4cccc(Cl)c4)c3cc2CC1	0.00126	22	15	71	
O=S(=O)(c1cccc(Cl)c1)n1ccc2cc3c(cc21)CCNCC3	0.00158	2.5	3	7	Kp at 4 h [4]: 5; concentration (Blood): 38 nM
